Assay results as given in the NIST ThermoML archive (doi:10.1016/j.tca.2012.01.007).

Test: wn = mass fraction of the nth substance listed
Settings: 101 kPa, Liquid, Vibrating tube method

OCCNCCO [diethanolamine] + O
Settings	mass density [kg/m3]
283.14 K, w1 = 1	1103.88
283.15 K, w1 = 0.1007	1011.98
283.15 K, w1 = 0.2002	1024.98
283.15 K, w1 = 0.2997	1038.45
283.15 K, w1 = 0.3999	1052.36
283.15 K, w1 = 0.5003	1065.24
283.15 K, w1 = 0.6024	1077.85
283.15 K, w1 = 0.6999	1088.2
283.15 K, w1 = 0.8004	1096.55
283.15 K, w1 = 0.8534	1099.73
283.15 K, w1 = 0.8995	1101.58
283.16 K, w1 = 0.9316	1102.57
283.16 K, w1 = 0.9591	1103.24
293.14 K, w1 = 0.8995	1095.4
293.15 K, w1 = 0.1007	1010.01
293.15 K, w1 = 0.2002	1022.35
293.15 K, w1 = 0.2997	1035.07
293.15 K, w1 = 0.3999	1048.19
293.15 K, w1 = 0.5003	1060.32
293.15 K, w1 = 0.6024	1072.33
293.15 K, w1 = 0.6999	1082.23
293.15 K, w1 = 0.8004	1090.42
293.15 K, w1 = 0.8534	1093.59
293.15 K, w1 = 0.9316	1096.37
293.15 K, w1 = 0.9591	1096.98
293.15 K, w1 = 1	1097.51
303.14 K, w1 = 0.6024	1066.59
303.14 K, w1 = 0.6999	1076.15
303.14 K, w1 = 0.8995	1089.06
303.14 K, w1 = 1	1091.06
303.15 K, w1 = 0.2002	1018.95
303.15 K, w1 = 0.2997	1031.08
303.15 K, w1 = 0.3999	1043.56
303.15 K, w1 = 0.8004	1084.12
303.15 K, w1 = 0.8534	1087.26
303.15 K, w1 = 0.9316	1090.01
303.15 K, w1 = 0.9591	1090.59
303.16 K, w1 = 0.1007	1007.1
303.16 K, w1 = 0.5003	1055.09
313.14 K, w1 = 0.6024	1060.6
313.14 K, w1 = 0.8004	1077.72
313.14 K, w1 = 1	1084.49
313.15 K, w1 = 0.1007	1003.4
313.15 K, w1 = 0.2002	1014.87
313.15 K, w1 = 0.3999	1038.5
313.15 K, w1 = 0.6999	1069.91
313.15 K, w1 = 0.8534	1080.78
313.15 K, w1 = 0.8995	1082.55
313.15 K, w1 = 0.9316	1083.49
313.15 K, w1 = 0.9591	1084.06
313.16 K, w1 = 0.2997	1026.54
313.16 K, w1 = 0.5003	1049.55
323.14 K, w1 = 0.5003	1043.69
323.14 K, w1 = 0.6024	1054.36
323.14 K, w1 = 1	1077.78
323.15 K, w1 = 0.1007	999.014
323.15 K, w1 = 0.2002	1010.18
323.15 K, w1 = 0.6999	1063.49
323.15 K, w1 = 0.8004	1071.18
323.15 K, w1 = 0.8534	1074.21
323.15 K, w1 = 0.8995	1075.95
323.15 K, w1 = 0.9316	1076.86
323.15 K, w1 = 0.9591	1077.4
323.16 K, w1 = 0.2997	1021.47
323.16 K, w1 = 0.3999	1033.03
333.14 K, w1 = 0.8995	1069.24
333.14 K, w1 = 1	1071
333.15 K, w1 = 0.1007	994.007
333.15 K, w1 = 0.2002	1004.93
333.15 K, w1 = 0.2997	1015.93
333.15 K, w1 = 0.3999	1027.17
333.15 K, w1 = 0.5003	1037.44
333.15 K, w1 = 0.6024	1047.86
333.15 K, w1 = 0.6999	1056.8
333.15 K, w1 = 0.8534	1067.5
333.15 K, w1 = 0.9316	1070.14
333.15 K, w1 = 0.9591	1070.66
333.16 K, w1 = 0.8004	1064.48
343.14 K, w1 = 0.2997	1009.93
343.14 K, w1 = 0.6024	1041.1
343.14 K, w1 = 0.6999	1049.92
343.14 K, w1 = 0.8995	1062.39
343.14 K, w1 = 1	1064.14
343.15 K, w1 = 0.1007	988.445
343.15 K, w1 = 0.2002	999.169
343.15 K, w1 = 0.3999	1020.9
343.15 K, w1 = 0.5003	1030.89
343.15 K, w1 = 0.8534	1060.63
343.15 K, w1 = 0.9316	1063.3
343.15 K, w1 = 0.9591	1063.82
343.16 K, w1 = 0.8004	1057.6
353.14 K, w1 = 0.2997	1003.5
353.14 K, w1 = 0.5003	1024.01
353.14 K, w1 = 0.6999	1042.78
353.14 K, w1 = 0.8995	1055.38
353.14 K, w1 = 0.9316	1056.33
353.14 K, w1 = 0.9591	1056.87
353.15 K, w1 = 0.1007	982.774
353.15 K, w1 = 0.2002	992.938
353.15 K, w1 = 0.3999	1014.25
353.15 K, w1 = 0.6024	1034.05
353.15 K, w1 = 0.8004	1050.51
353.15 K, w1 = 0.8534	1053.58
353.15 K, w1 = 1	1056.83
